Assay results reported in patent US7332200B1, “Permeabilizing biofilms” (The General Hospital Corporation, priority 1999, dated 2008).

Tested on: A. viscosus in biofilms
Test: Phototoxicity (bacterial killing, colony counts) of methylene blue on A. viscosus biofilms with red light, with or without a stress wave
Type: cell-based
Description: The biofilms were grown on enamel surfaces as described in Example 1. Biofilms were incubated with methylene blue for 1 or 5 minutes and exposed to stress waves (one pulse), after which they were exposed to 666 nm red light with a fluence of 15 J/cm^2 at an irradiance of 50 mW/cm^2. In control samples, biofilms were treated only with methylene blue, or were treated with methylene blue and exposed to red light, but without stress waves. An argon ion laser with an emission of 514.5. nm was used to pump a dye laser. The laser light was coupled into a 1.0 mm quartz fiber and appropriate spot sizes were created with an objective lens.
After illumination, adherent bacteria from the samples as treated above were scraped from the enamel surfaces with a sterile blade and dispersed in trypticase soy broth. Serial dilutions were prepared, and 100 μl aliquots were spread over the surfaces of blood agar plates. Survival fractions from each biofilm were calculated by counting the colonies on the plates and dividing by the number of colonies from dark controls incubated with the drug and kept at room temperature for periods equal to irradiation time. Other controls were: 1) biofilms untreated with methylene blue, light, or stress waves; 2) biofilms exposed only to a stress wave; 3) biofilms exposed to light without methylene blue; and 4) biofilms exposed to light after incubation with methylene blue.

## CN(C)c1ccc2nc3ccc(=[N+](C)C)cc-3sc2c1 [methylene blue]
five-minute incubation with 50 μg/ml methylene blue, red light, no stress wave
  bacteria associated with biofilms killed: 57%
five-minute incubation with 50 μg/ml methylene blue, stress wave (one pulse) and 666 nm red light 15 J/cm^2
  bacteria associated with biofilms killed: 99%
one-minute incubation with 50 μg/ml methylene blue, red light, no stress wave
  bacteria associated with biofilms killed: 34%
one-minute incubation with 50 μg/ml methylene blue, stress wave (one pulse) and red light
  bacteria associated with biofilms killed: 96.5%
